Assay results taken from US20070135398A1, “Process for the preparation of ciclesonide” (priority 2005, published 2007).

Tests used:
[1] = Decomposition in ethanol-water mixture; format: physicochemical; conditions: 20 mg in 6 mL ethanol and 4 mL purified water, 80° C., 64 hours
Procedure: The HPLC analysis was carried out using the following equipment and methodology. The column was a Prodigy ODS, 220×4.6 mm, 5 μm. The eluent was ethanol/water 50/50 at a flow rate of 2 mL/min. The detector was an UV-DAD at 242 nm.
Decomposition in Ethanol-Water Mixture
20 mg ciclesonide were dissolved in 6 mL ethanol and 4 mL purified water and the solution was kept at 80° C. for 64 hours.

[2] = ester prodrug; Current Opinion in Investigational Drugs 2002, 3(1) 78-83; cited from earlier work

## CC(C)C(=O)OCC(=O)[C@@]12O[C@H](C3CCCCC3)O[C@@H]1C[C@H]1[C@@H]3CCC4=CC(=O)C=C[C@]4(C)[C@H]3[C@@H](O)C[C@@]12C [ciclesonide, pregna-1,4-diene-3,20-dione, 16,17-[[(R)-cyclohexylmethylene]bis(oxy)]-11-hydroxy-21-(2-methyl-1-oxopropoxy)-(11β,16α)-(9CI)]
[1]
  formation of the corresponding 21-hydroxy analogue: 3.99%
[1]; initial purity 99.74%
  purity after storage in ethanol/water solution: 95.34%
[2]
  oral bioavailability: essentially devoid of oral bioavailability
